Literature values as cited in patent US20260335397A1, “TREATMENT OF GEOGRAPHIC ATROPHY” (Apellis Pharmaceuticals, Inc., priority 2022, published 2026).
Where a SMILES comes first, the peptide text is derived from it. Bridges are numbered along the chain shown (N, C = ends). [ ]: non-standard residue; d: D form. Abu = CC[C@H](N)C(=O)O

Tested on: complement activation
Conditions: relative to compstatin (C-terminally amidated); published data; cited from earlier work
In the case of `CC[C@H](C)[C@H](NC(=O)CN)C(=O)N[C@H]1CSSC[C@@H](C(=O)N[C@H](C(=O)N[C@@H](CC(N)=O)C(=O)O)[C@@H](C)O)NC(=O)[C@H](CCCNC(=N)N)NC(=O)[C@H](Cc2c[nH]cn2)NC(=O)[C@H](C)NC(=O)CNC(=O)[C@H](Cc2c[nH]c3cc(F)ccc23)NC(=O)[C@H](CC(=O)O)NC(=O)[C@H](CCC(N)=O)NC(=O)[C@H](Cc2c[nH]c3cc(F)ccc23)NC(=O)[C@H](C(C)C)NC1=O` [+G/V4(6fW)/W7(6fW)H9A+N-OH], the Activity over compstatin is given as 126xmore.
In the case of `CC[C@H](C)[C@H](NC(C)=O)C(=O)N[C@H]1CSSC[C@@H](C(=O)N[C@H](C(=O)O)[C@@H](C)O)NC(=O)[C@H](CCCNC(=N)N)NC(=O)[C@H](Cc2c[nH]cn2)NC(=O)[C@H](C)NC(=O)CNC(=O)[C@H](Cc2c[nH]c3ccccc23)NC(=O)[C@H](CC(=O)O)NC(=O)[C@H](CCC(N)=O)NC(=O)[C@H](Cc2cccc3ccccc23)NC(=O)[C@H](C(C)C)NC1=O` [Ac V4(1-Nal)/H9A-OH], the Activity over compstatin is given as 30xmore.
In the case of `CC[C@H](C)[C@H](NC(C)=O)C(=O)N[C@H]1CSSC[C@@H](C(=O)N[C@H](C(=O)O)[C@@H](C)O)NC(=O)[C@H](CCCNC(=N)N)NC(=O)[C@H](Cc2c[nH]cn2)NC(=O)[C@H](C)NC(=O)CNC(=O)[C@H](Cc2c[nH]c3ccccc23)NC(=O)[C@H](CC(=O)O)NC(=O)[C@H](CCC(N)=O)NC(=O)[C@H](Cc2ccc3ccccc3c2)NC(=O)[C@H](C(C)C)NC1=O` [Ac V4(2-Nal)/H9A-OH], the Activity over compstatin is given as 38xmore.
In the case of `CC[C@H](C)[C@H](NC(C)=O)C(=O)N[C@H]1CSSC[C@@H](C(=O)N[C@H](C(N)=O)[C@@H](C)O)NC(=O)[C@H](CCCNC(=N)N)NC(=O)[C@H](Cc2c[nH]cn2)NC(=O)[C@H](C)NC(=O)CNC(=O)[C@H](Cc2c[nH]c3ccc(F)cc23)NC(=O)[C@H](CC(=O)O)NC(=O)[C@H](CCC(N)=O)NC(=O)[C@H](Cc2cn(C)c3ccccc23)NC(=O)[C@H](C(C)C)NC1=O` [Ac-V4(1MeW)/W7(5fW)/H9A], the Activity over compstatin is given as 264xmore.
In the case of `CC[C@H](C)[C@H](NC(C)=O)C(=O)N[C@H]1CSSC[C@@H](C(=O)N[C@H](C(N)=O)[C@@H](C)O)NC(=O)[C@H](CCCNC(=N)N)NC(=O)[C@H](Cc2c[nH]cn2)NC(=O)[C@H](C)NC(=O)CNC(=O)[C@H](Cc2c[nH]c3ccccc23)NC(=O)[C@H](CC(=O)O)NC(=O)[C@H](CCC(N)=O)NC(=O)[C@H](Cc2ccc3ccccc3c2)NC(=O)[C@H](C(C)C)NC1=O` [Ac-V4(2-Nal)/H9A], the Activity over compstatin is listed as 99xmore.
For `CC[C@H](C)[C@H](NC(C)=O)C(=O)N[C@H]1CSSC[C@@H](C(=O)N[C@H](C(N)=O)[C@@H](C)O)NC(=O)[C@H](CCCNC(=N)N)NC(=O)[C@H](Cc2c[nH]cn2)NC(=O)[C@H](C)NC(=O)CNC(=O)[C@H](Cc2c[nH]c3ccccc23)NC(=O)[C@H](CC(=O)O)NC(=O)[C@H](CCC(N)=O)NC(=O)[C@H](Cc2c[nH]c3ccc(C)cc23)NC(=O)[C@H](C(C)C)NC1=O` [Ac-V4(5-MeW)/H9A], the Activity over compstatin is listed as 67xmore.
In the case of `CC[C@H](C)[C@H](NC(C)=O)C(=O)N[C@H]1CSSC[C@@H](C(=O)N[C@H](C(N)=O)[C@@H](C)O)NC(=O)[C@H](CCCNC(=N)N)NC(=O)[C@H](Cc2c[nH]cn2)NC(=O)[C@H](C)NC(=O)CNC(=O)[C@H](Cc2c[nH]c3ccccc23)NC(=O)[C@H](CC(=O)O)NC(=O)[C@H](CCC(N)=O)NC(=O)[C@H](Cc2c[nH]c3ccc(F)cc23)NC(=O)[C@H](C(C)C)NC1=O` [Ac-V4(5fW)/H9A], the Activity over compstatin is given as 31xmore.
For `CC[C@H](C)[C@H](NC(C)=O)C(=O)N[C@H]1CSSC[C@@H](C(=O)N[C@H](C(=O)O)[C@@H](C)O)NC(=O)[C@H](CCCNC(=N)N)NC(=O)[C@H](Cc2c[nH]cn2)NC(=O)[C@H](C)NC(=O)CNC(=O)[C@H](Cc2c[nH]c3ccccc23)NC(=O)[C@H](CC(=O)O)NC(=O)[C@H](CCC(N)=O)NC(=O)[C@H](Cc2ccc(C(=O)c3ccccc3)cc2)NC(=O)[C@H](C(C)C)NC1=O` [Ac-V4(Bpa)/H9A-OH], the Activity over compstatin is listed as 49xmore.
In the case of `CC[C@H](C)[C@H](NC(C)=O)C(=O)N[C@H]1CSSC[C@@H](C(=O)N[C@H](C(N)=O)[C@@H](C)O)NC(=O)[C@H](CCCNC(=N)N)NC(=O)[C@H](Cc2c[nH]cn2)NC(=O)[C@H](C)NC(=O)CNC(=O)[C@H](Cc2c[nH]c3ccccc23)NC(=O)[C@H](CC(=O)O)NC(=O)[C@H](CCC(N)=O)NC(=O)[C@H](Cc2ccc(C(=O)c3ccccc3)cc2)NC(=O)[C@H](C(C)C)NC1=O` [Ac-V4(Bpa)/H9A], the Activity over compstatin is given as 86xmore.
In the case of `CC[C@H](C)[C@H](NC(C)=O)C(=O)N[C@H]1CSSC[C@@H](C(=O)N[C@H](C(=O)O)[C@@H](C)O)NC(=O)[C@H](CCCNC(=N)N)NC(=O)[C@H](Cc2c[nH]cn2)NC(=O)[C@H](C)NC(=O)CNC(=O)[C@H](Cc2c[nH]c3ccccc23)NC(=O)[C@H](CC(=O)O)NC(=O)[C@H](CCC(N)=O)NC(=O)[C@H](Cc2csc3ccccc23)NC(=O)[C@H](C(C)C)NC1=O` [Ac-V4(Bta)/H9A-OH], the Activity over compstatin is given as 65xmore.
In the case of `CC[C@H](C)[C@H](NC(C)=O)C(=O)N[C@H]1CSSC[C@@H](C(=O)N[C@H](C(N)=O)[C@@H](C)O)NC(=O)[C@H](CCCNC(=N)N)NC(=O)[C@H](Cc2c[nH]cn2)NC(=O)[C@H](C)NC(=O)CNC(=O)[C@H](Cc2c[nH]c3ccccc23)NC(=O)[C@H](CC(=O)O)NC(=O)[C@H](CCC(N)=O)NC(=O)[C@H](Cc2csc3ccccc23)NC(=O)[C@H](C(C)C)NC1=O` [Ac-V4(Bta)/H9A], the Activity over compstatin is listed as 64xmore.
For `CC[C@@H]1NC(=O)CNC(=O)[C@H](Cc2c[nH]c3ccccc23)NC(=O)[C@H](CC(=O)O)NC(=O)[C@H](CCC(N)=O)NC(=O)[C@H](Cc2c[nH]c3ccccc23)NC(=O)[C@H](C(C)C)NC(=O)[C@@H](NC(=O)[C@@H](NC(C)=O)[C@@H](C)CC)CSSC[C@@H](C(=O)N[C@H](C(N)=O)[C@@H](C)O)NC(=O)[C@H](CCCNC(=N)N)NC(=O)[C@H](Cc2c[nH]cn2)NC1=O` [Ac-V4W/H9(2-Abu)] (Ac-ICVWQDWG[Abu]HRCT-NH2; disulfide 2-12), the Activity over compstatin is listed as 64xmore.
For `CC[C@H](C)[C@H](NC(C)=O)C(=O)N[C@H]1CSSC[C@@H](C(=O)N[C@@H](C(=O)O)[C@H](C)O)NC(=O)[C@H](CCCNC(=N)N)NC(=O)[C@H](Cc2c[nH]cn2)NC(=O)[C@H](C)NC(=O)CNC(=O)[C@H](Cc2c[nH]c3ccccc23)NC(=O)[C@H](CC(=O)O)NC(=O)[C@H](CCC(N)=O)NC(=O)[C@H](Cc2c[nH]c3ccccc23)NC(=O)[C@H](C(C)C)NC1=O` [Ac-V4W/H9A/T13dT-OH], the Activity over compstatin is given as 55xmore.
In the case of `CC[C@H](C)[C@H](NC(C)=O)C(=O)N[C@H]1CSSC[C@@H](C(=O)N[C@H](C(N)=O)[C@@H](C)O)NC(=O)[C@H](CCCNC(=N)N)NC(=O)[C@H](Cc2c[nH]cn2)NC(=O)[C@H](C)NC(=O)CNC(=O)[C@H](Cc2c[nH]c3ccccc23)NC(=O)[C@H](CC(=O)O)NC(=O)[C@H](CCC(N)=O)NC(=O)[C@H](Cc2c[nH]c3ccccc23)NC(=O)[C@H](C(C)C)NC1=O` [Ac-V4W/H9A], the Activity over compstatin is listed as 45xmore.
For `CC[C@H](C)[C@H](NC(C)=O)C(=O)N[C@H]1CSSC[C@@H](C(=O)N[C@H](C(N)=O)[C@@H](C)O)NC(=O)[C@H](CCCNC(=N)N)NC(=O)[C@H](Cc2c[nH]cn2)NC(=O)[C@H](C)NC(=O)CNC(=O)[C@H](Cc2c[nH]c3ccc(F)cc23)NC(=O)[C@H](CC(=O)O)NC(=O)[C@H](CCC(N)=O)NC(=O)[C@H](Cc2c[nH]c3ccccc23)NC(=O)[C@H](C(C)C)NC1=O` [Ac-V4W/W7(5fW)/H9A], the Activity over compstatin is listed as 121xmore.
In the case of `CC[C@H](C)[C@H](NC(C)=O)C(=O)N[C@H]1CSSC[C@@H](C(=O)N[C@H](C(N)=O)[C@@H](C)O)NC(=O)[C@H](CCCNC(=N)N)NC(=O)[C@H](Cc2c[nH]cn2)NC(=O)[C@H](C)NC(=O)CNC(=O)[C@H](Cc2c[nH]c3ccccc23)NC(=O)[C@H](CC(=O)O)NC(=O)[C@H](CCC(N)=O)NC(=O)[C@H](Cc2ccc(O)cc2)NC(=O)[C@H](C(C)C)NC1=O` [Ac-V4Y/H9A], the Activity over compstatin is listed as 14xmore.
In the case of `CC[C@H](C)[C@H](NC(C)=O)C(=O)N[C@H]1CSSC[C@@H](C(=O)N[C@H](C(=O)O)[C@@H](C)O)NC(=O)[C@H](CCCNC(=N)N)NC(=O)[C@H](Cc2c[nH]cn2)NC(=O)[C@H](C)NC(=O)CNC(=O)[C@H](Cc2c[nH]c3ccccc23)NC(=O)[C@H](CC(=O)O)NC(=O)[C@H](CCC(N)=O)NC(=O)[C@H](C2Cc3ccccc3C2)NC(=O)[C@H](C(C)C)NC1=O` [Ac-V42Igl/H9A-OH], the Activity over compstatin is given as 37xmore.
For `CC[C@H](C)[C@H](NC(C)=O)C(=O)N[C@H]1CSSC[C@@H](C(=O)N[C@H](C(N)=O)[C@@H](C)O)NC(=O)[C@H](CCCNC(=N)N)NC(=O)[C@H](Cc2c[nH]cn2)NC(=O)[C@H](C)NC(=O)CNC(=O)[C@H](Cc2c[nH]c3ccccc23)NC(=O)[C@H](CC(=O)O)NC(=O)[C@H](CCC(N)=O)NC(=O)[C@H](C2Cc3ccccc3C2)NC(=O)[C@H](C(C)C)NC1=O` [Ac-V42Igl/H9A], the Activity over compstatin is given as 39xmore.
For `CC[C@H](C)[C@H](NC(C)=O)C(=O)N[C@H]1CSSC[C@@H](C(=O)N[C@H](C(N)=O)[C@@H](C)O)NC(=O)[C@H](CCCNC(=N)N)NC(=O)[C@H](Cc2c[nH]cn2)NC(=O)[C@H](Cc2c[nH]cn2)NC(=O)CNC(=O)[C@H](Cc2c[nH]c3ccccc23)NC(=O)[C@H](CC(=O)O)NC(=O)[C@H](CCC(N)=O)NC(=O)[C@H](C(C)C)NC(=O)[C@H](C(C)C)NC1=O` [Ac-compstatin], the Activity over compstatin is given as 3xmore.
